Data published in US20130029973A1, “TETRAHYDROBENZOTHIOPHENE COMPOUND” (ASTELLAS PHARMA INC., priority 2010, published 2013).

Assays:
rat NPT-IIb = target: T1, rat NPT-IIb (Rattus norvegicus, UniProt Q9JJ09); assay: 33P phosphate uptake inhibiting action of rat NPT-IIb expressing cell; format: cell-based; details: HEK293; evaluation concentration 1 μM; 33P uptake in rat NPT-IIb stably expressing 293 cells; read-out: Rat NPT-IIb inhibitory rate (%)
T1 construct: rat NPT-IIb ORF was cloned into p3×FLAG-CMV-10; 3xFLAG (N); expressed in transfected cells
T1 sequence (Q9JJ09 1-695): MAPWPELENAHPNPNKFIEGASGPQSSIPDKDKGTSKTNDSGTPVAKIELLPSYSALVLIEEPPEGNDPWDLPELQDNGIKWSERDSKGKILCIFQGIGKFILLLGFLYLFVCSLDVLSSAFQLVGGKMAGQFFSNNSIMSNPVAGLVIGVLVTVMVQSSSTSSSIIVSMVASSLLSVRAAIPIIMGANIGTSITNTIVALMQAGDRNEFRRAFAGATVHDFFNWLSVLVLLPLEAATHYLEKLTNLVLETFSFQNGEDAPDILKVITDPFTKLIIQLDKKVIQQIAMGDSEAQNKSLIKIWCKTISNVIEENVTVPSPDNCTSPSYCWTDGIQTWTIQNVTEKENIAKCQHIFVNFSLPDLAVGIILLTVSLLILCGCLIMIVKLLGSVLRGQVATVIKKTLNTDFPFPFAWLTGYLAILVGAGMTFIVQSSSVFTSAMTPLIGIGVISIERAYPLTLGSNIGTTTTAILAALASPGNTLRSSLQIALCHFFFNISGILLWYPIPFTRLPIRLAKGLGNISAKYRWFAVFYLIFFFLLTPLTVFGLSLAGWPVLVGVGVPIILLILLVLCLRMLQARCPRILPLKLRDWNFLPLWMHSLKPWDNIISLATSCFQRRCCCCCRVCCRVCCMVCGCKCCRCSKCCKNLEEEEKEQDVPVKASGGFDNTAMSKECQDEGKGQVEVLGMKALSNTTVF
Text: Test Example 1: ^33P Phosphate Uptake Inhibiting Action of Rat NPT-IIb Expressing Cell
Preparation of Rat NPT-IIb Expressing Cell
Using rat small intestine cDNA library as a template, rat NPT-IIb ORF was cloned into p3×FLAG-CMV-10 by PCR according to a standard method. Then, the cloned rat NPT-IIb expressing plasmid was transfected into 293 cells, and G418 was used to obtain a rat NPT-11b-stably expressing cell line.
Evaluation System on Inhibition of Phosphate Uptake into Rat NPT-IIb Expressing Cell
The rat NPT-Hb expressing cells were seeded into a 96-well plate and incubated overnight. The medium was taken out and washed with buffer A (137 mM N-methyl-D-glucamine, 5.4 mM KCl, 2.8 mM CaCl2, 1.2 mM MgCl2, 10 mM HEPES (adjusted to pH 7.4 with HCl)), and then buffer B (137 mM NaCl, 5.4 mM KCl, 2.8 mM CaCl2, 1.2 mM MgCl2, 0.1 mM KH2PO4, 10 mM HEPES (adjusted to pH 7.4 with KOH)) was added thereto. Then, a compound having 10-fold higher concentration relative to the evaluation concentration was prepared by dilution with the buffer B and added thereto, followed by incubation in CO2 incubator. Buffer B supplemented 50 μCi/mL ^33P was added thereto, followed by further incubation in a CO2 incubator. After the reaction, the buffer was taken out and the cells were washed with buffer C (137 mM NaCl, 10 mM Tris/HCl pH 7.2). Then, Microscint-20 was added thereto and ^33P uptake was measured by using TopCount. The inhibitory rate was determined according to the following equation.
Inhibitory rate (%)=(1−(^33P uptake of drug-treated well)/(^33P uptake of DMSO-added well))×100
For several compounds of the formula (I), rat NPT-11b inhibitory activity at a pharmacological evaluation concentration of 1 μM is shown in Table 1. Here, Ex represents Example No. as denoted below (this shall apply hereinafter).

[1] = system: orally 32P phosphate loaded rats; assay: Blood radioactivity increase inhibiting action in orally 32P phosphate loaded rats (phosphate absorption inhibitory action); format: in vivo; details: Rattus norvegicus, 0.5 h; 3 mg/kg oral, male Wistar rats; from serum radioactivity AUC0-30min vs control group; read-out: Phosphate absorption inhibitory rate (%)
Experimental: Blood Radioactivity Increase Inhibiting Action in Orally ^32P Phosphate Loaded Rats (Phosphate Absorption Inhibitory Action)
Male Wistar rats (6 to 7 weeks old) were fasted for 24 hours and used as experimental animals. The compound was dissolved or suspended with a solvent, and was used at a concentration of 0.6 mg/mL. The compound-administered animals were forcibly orally administered with the compound at a dose of 3 mg/kg. Control-group animals were administered a solvent containing no compound at a dose of 5 mL/kg. After 5 minutes from administration of the compound or from administration of the solvent, a ^32P-containing phosphate solution (8.3 mM NaH2PO4) was orally administered thereto at a dose of 7.2 mL/kg. After 15 minutes and 30 minutes, the blood was taken from the orbital venous plexus and the serum was collected. Radioactivity in 0.1 mL of the serum was measured by a liquid scintillation counter. AUC0-30min calculated from the measured counts was considered as a phosphate absorption amount. The phosphate absorption inhibitory rate was determined from the AUC0-30min value according to the following equation.
Phosphate absorption inhibitory rate (%)=(1−Phosphate absorption count of compound-administered group/Phosphate absorption count of control group)×100
As a result, it was confirmed that several compounds of the formula (I) have an intestinal phosphate absorption inhibitory action. With the several compounds of the formula (I), the phosphate absorption inhibitory rates at a pharmacological evaluation dose of 3 mg/kg are shown in Table 2.

SMILES	melting point	inhibition at 1 µM (rat NPT-IIb)	inhibition in vivo at 3 mg/kg [1]
CC(C)N(C1(C(=O)O)CC1)S(=O)(=O)c1cccc(C(=O)Nc2sc3c(c2C(=O)Nc2ccc(CCc4ccc(C(=O)O)cc4)cc2)CCCC3)c1 [Example 17, 4-{2-[4-({[2-({3-[(1-carboxycyclopropyl)(isopropyl)sulfamoyl]benzoyl}amino)-4,5,6,7-tetrahydro-1-benzothiophen-3-yl]carbonyl}amino)phenyl]ethyl}benzoic acid]	261.4 °C	75%	–
CCN([C@H]1CC[C@H](C(=O)O)CC1)S(=O)(=O)c1cccc(C(=O)Nc2sc3c(c2C(=O)Nc2ccc(CCCc4ccc(C(=O)O)cc4)cc2)CCCC3)c1 [Example 23, 4-{3-[4-({[2-({3-[(trans-4-carboxycyclohexyl)(ethyl)sulfamoyl]benzoyl}amino)-4,5,6,7-tetrahydro-1-benzothiophen-3-yl]carbonyl}amino)phenyl]propyl}benzoic acid]	178.5 °C	86%	≥ 60%
CCCN([C@H]1CC[C@H](C(=O)O)CC1)S(=O)(=O)c1cccc(C(=O)Nc2sc3c(c2C(=O)Nc2ccc(CCCc4ccc(C(=O)O)cc4)cc2)CCCC3)c1 [Example 102]	–	87%	≥ 60%
CCOC(=O)C1(N(CC)S(=O)(=O)c2cccc(C(=O)Nc3sc4c(c3C(=O)Nc3ccc(CCc5ccc(C(=O)O)cc5)cc3)CCCC4)c2)CC1 [Example 70]	–	83%	–
CN(CCC(=O)O)S(=O)(=O)c1cccc(C(=O)Nc2sc3c(c2C(=O)Nc2ccc(CCc4ccc(C(=O)O)cc4)cc2)CCCC3)c1 [Example 10, 4-{2-[4-({[2-({3-[(2-carboxyethyl)(methyl)sulfamoyl]benzoyl}amino)-4,5,6,7-tetrahydro-1-benzothiophen-3-yl]carbonyl}amino)phenyl]ethyl}benzoic acid]	230.3 °C	42%	–
CCN([C@H]1CC[C@H](C(=O)O)CC1)S(=O)(=O)c1cccc(C(=O)Nc2sc3c(c2C(=O)Nc2ccc(CCc4ccc(C(=O)O)cc4)cc2)CCCC3)c1 [Example 2, 4-{2-[4-({[2-({3-[(trans-4-carboxycyclohexyl)(ethyl)sulfamoyl]benzoyl}amino)-4,5,6,7-tetrahydro-1-benzothiophen-3-yl]carbonyl}amino)phenyl]ethyl}benzoic acid]	262.8 °C	83%	≥ 60%
O=C(O)c1ccc(CCc2ccc(NC(=O)c3c(NC(=O)c4cccc(S(=O)(=O)N(C5CC5)[C@H]5CC[C@H](C(=O)O)CC5)c4)sc4c3CCCC4)cc2)cc1 [Example 4, 4-{2-[4-({[2-({3-[(trans-4-carboxycyclohexyl)(cyclopropyl)sulfamoyl]benzoyl}amino)-4,5,6,7-tetrahydro-1-benzothiophen-3-yl]carbonyl}amino)phenyl]ethyl}benzoic acid]	–	82%	≥ 60%
CCOC(=O)CN(C1CC1)S(=O)(=O)c1cccc(C(=O)Nc2sc3c(c2C(=O)Nc2ccc(CCc4ccc(C(=O)OC)cc4)cc2)CCCC3)c1 [Example 6, methyl 4-{2-[4-({[2-({3-[cyclopropyl(2-ethoxy-2-oxoethyl)sulfamoyl]benzoyl}amino)-4,5,6,7-tetrahydro-1-benzothiophen-3-yl]carbonyl}amino)phenyl]ethyl}benzoate]	186.8 °C	–	–
CC(=O)N1CCN(S(=O)(=O)c2cccc(C(=O)Nc3sc4c(c3C(=O)Nc3ccc(CCc5ccc(C(=O)O)cc5)cc3)CCCC4)c2)CC1 [Example 27, 4-{2-[4-({[2-({3-[(4-acetylpiperazin-1-yl)sulfonyl]benzoyl}amino)-4,5,6,7-tetrahydro-1-benzothiophen-3-yl]carbonyl}amino)phenyl]ethyl}benzoic acid]	241.4 °C	58%	–

Now from value to compound, other results behind:

melting point	inhibition at 1 µM (rat NPT-IIb)	SMILES	inhibition in vivo at 3 mg/kg [1]
–	52%	CC(=O)N1CCN(S(=O)(=O)c2cccc(C(=O)Nc3sc4c(c3C(=O)Nc3ccc(CCCc5ccc(C(=O)O)cc5)cc3)CCCC4)c2)CC1 [Example 109]	–
159.4 °C	85%	CCN(c1ccc(C(=O)O)cc1)S(=O)(=O)c1cccc(C(=O)Nc2sc3c(c2C(=O)Nc2ccc(CCc4ccc(C(=O)O)cc4)cc2)CCCC3)c1 [Example 21]	–
–	51%	CN(CC(O)CO)S(=O)(=O)c1cccc(C(=O)Nc2sc3c(c2C(=O)Nc2ccc(CCc4ccc(C(=O)O)cc4)cc2)CCCC3)c1 (centres unmarked) [Example 29, 4-{2-[4-({[2-({3-[(2,3-dihydroxypropyl)(methyl)sulfamoyl]benzoyl}amino)-4,5,6,7-tetrahydro-1-benzothiophen-3-yl]carbonyl}amino)phenyl]ethyl}benzoic acid]	–
220.1 °C	80%	O=C(O)CCCCN(C1CC1)S(=O)(=O)c1cccc(C(=O)Nc2sc3c(c2C(=O)Nc2ccc(CCc4ccc(C(=O)O)cc4)cc2)CCCC3)c1 [Example 34, 4-{2-[4-({[2-({3-[(4-carboxybutyl)(cyclopropyl)sulfamoyl]benzoyl}amino)-4,5,6,7-tetrahydro-1-benzothiophen-3-yl]carbonyl}amino)phenyl]ethyl}benzoic acid]	≥ 60%
–	52%	C[C@@]1(C(=O)O)CCCN1S(=O)(=O)c1cccc(C(=O)Nc2sc3c(c2C(=O)Nc2ccc(CCc4ccc(C(=O)O)cc4)cc2)CCCC3)c1 [Example 25, 1-[(3-{[3-({4-[2-(4-carboxyphenyl)ethyl]phenyl}carbamoyl)-4,5,6,7-tetrahydro-1-benzothiophen-2-yl]carbamoyl}phenyl)sulfonyl]-2-methylproline]	–
–	87%	O=C(O)c1ccc(CCc2ccc(NC(=O)c3c(NC(=O)c4cccc(S(=O)(=O)N(C5CC5)[C@H]5CC[C@@H](C(=O)O)CC5)c4)sc4c3CCCC4)cc2)cc1 [Example 5, 4-{2-[4-({[2-({3-[(cis-4-carboxycyclohexyl)(cyclopropyl)sulfamoyl]benzoyl}amino)-4,5,6,7-tetrahydro-1-benzothiophen-3-yl]carbonyl}amino)phenyl]ethyl}benzoic acid]	–
–	65%	CC(C)N(Cc1cccc(C(=O)O)c1)S(=O)(=O)c1cccc(C(=O)Nc2sc3c(c2C(=O)Nc2ccc(CCc4ccc(C(=O)O)cc4)cc2)CCCC3)c1 [Example 58]	≥ 60%
